For experiment [1], the target named is T1, G12D-mutant human KRAS (amino acid residues 1-188) (Homo sapiens, UniProt P01116, G12D).
T1 construct: G12D or G12C-mutant human KRAS (amino acid residues 1-188) with FLAG tag; made in house; host or cells: E. coli
Briefly: KRAS Binding Disruption Assay (AlphaScreen; biotinylated KRpep-2d analogue or RAF1-RBD), G12D. Conditions: for IC50: geometric mean, read-out: KRAS GMean IC50 (uM) MUTATION: G12D. The method in brief: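 Mutant KRAS (5-20 nM) incubated 1 h at 25° C with test compound and 5-20 nM biotinylated KRpep-2d analogue or RAF1-RBD in 20 mM HEPES pH 7.5, 100 mM NaCl, 5 mM MgCl2, 0.01% Tween-20, 0.01% BSA.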
On the technique in general: Bead proximity is the source of the signal in Alpha formats.

Experiment [2] deals with T2, G12C-mutant human KRAS (amino acid residues 1-188) (Homo sapiens, UniProt P01116, G12C).
T2 construct: G12D or G12C-mutant human KRAS (amino acid residues 1-188) with FLAG tag; made in house; host or cells: E. coli
T2 sequence (P01116 1-188 isoform P01116-2 G12C): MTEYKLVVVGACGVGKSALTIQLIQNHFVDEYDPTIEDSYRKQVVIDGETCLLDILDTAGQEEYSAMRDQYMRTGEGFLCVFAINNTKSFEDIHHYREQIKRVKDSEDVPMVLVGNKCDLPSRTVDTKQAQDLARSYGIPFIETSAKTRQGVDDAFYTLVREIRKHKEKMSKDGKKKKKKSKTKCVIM
Briefly: KRAS Binding Disruption Assay (AlphaScreen; biotinylated KRpep-2d analogue or RAF1-RBD), G12C. Conditions: geometric mean, read-out: KRAS GMean IC50 (uM) MUTATION: G12C. As to the method: Compound binding disrupts the interaction of KRpep-2d or RAF1-RBD with KRAS, leading to a decrease in Alpha signal.
All assay components were prepared in 20 mM HEPES (pH 7.5), 100 mM NaCl, 5 mM MgCl2, 0.01% Tween-20, and 0.01% BSA. Biotinylated analogues of KRpep-2d were custom synthesized. The binding disruption assays were performed using 5-20 nM of mutant KRAS and 5-20 nM of either biotinylated KRpep-2d analogue or RAF1-RBD. 19 μL of KRAS protein and 4 μL of biotinylated KRpep-2d or RAF1-RBD were added to the wells of a 384-well plate containing 1 μL of various concentrations of test compound or DMSO vehicle. 16 wells containing KRAS, biotinylated KRpep-2d or RAF1-RBD, and 5% DMSO served as high controls. 16 wells containing KRAS only and 5% DMSO served as low controls. Binding reactions were incubated for 1 hour at 25° C., then Anti-Flag Acceptor and Streptavidin Donor Alpha beads were added at a final concentration of 10 μg/mL for an additional hour at room temperature. Alpha signal was read out on a Perkin Elmer Envision HTS instrument. The percentage inhibition at individual compound concentrations relative to high and low controls was calculated. The data were analyzed by using nonlinear regression to generate IC50 values.

This is an account of results in patent publication US20230081426A1, “COMPOUNDS AND METHODS FOR KRAS MODULATION AND INDICATIONS THEREFOR” (Plexxikon Inc., priority 2020, published 2023).

A word on the IC50: it is the concentration that inhibits the measured activity by half.

The structures appear in SMILES notation. Read-outs that look alike come from different tables or passages of the source.

T1 sequence (P01116 1-188 isoform P01116-2 G12D): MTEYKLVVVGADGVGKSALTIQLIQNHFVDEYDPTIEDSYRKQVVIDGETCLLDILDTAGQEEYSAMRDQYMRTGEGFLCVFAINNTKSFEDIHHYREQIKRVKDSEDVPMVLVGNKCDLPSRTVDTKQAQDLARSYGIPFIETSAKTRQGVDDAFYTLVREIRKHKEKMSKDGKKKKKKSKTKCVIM

Regarding `CC(=O)NCCCN1CCCC1COc1nc(N2C[C@H]3CC[C@@H](C2)N3)c2ccc(-c3cc(O)cc4ccccc34)c(F)c2n1` (mixture of isomers) [P-0674, N-(3-((RS)-2-(((4-((1R,5S)-3,8-diazabicyclo[3.2.1]octan-3-yl)-8-fluoro-7-(3-hydroxynaphthalen-1-yl)quinazolin-2-yl)oxy)methyl)pyrrolidin-1-yl)propyl)acetamide], the IC50 in experiment [1] (KRAS G12D) and in experiment [2] was 0.0001 to 10 µM each time.
Regarding `Cc1cc(CN2[C@@H]3CC[C@H]2CN(c2nc(OCC45CCCN4CCC5)nc4cc(-c5cc(O)cc6ccccc56)ccc24)C3)no1` [P-0006, 4-(4-((1R,5S)-8-((5-methylisoxazol-3-yl)methyl)-3,8-diazabicyclo[3.2.1]octan-3-yl)-2-((tetrahydro-1H-pyrrolizin-7a(5H)-yl)methoxy)quinazolin-7-yl)naphthalen-2-ol], the values for the IC50 in experiment [1] (KRAS G12D) and in experiment [2] were 0.0001 to 10 µM and 10 to 100 µM, respectively.
Regarding `CCc1cc2c(N3C[C@H]4CC[C@@H](C3)N4)nc(OC[C@@H]3CCCN3C)nc2c(F)c1-c1cc(O)cc2ccccc12` [P-0013, 4-(4-((1R,5S)-3,8-diazabicyclo[3.2.1]octan-3-yl)-6-ethyl-8-fluoro-2-(((S)-1-methylpyrrolidin-2-yl)methoxy)quinazolin-7-yl)naphthalen-2-ol], the IC50 in experiment [1] (KRAS G12D) and in experiment [2] was 0.0001 to 10 µM throughout.
For `CN(C)CCNc1nc(N2C[C@H]3CC[C@@H](C2)N3)c2ccc(-c3cc(O)cc4ccccc34)cc2n1` [P-0022, 4-(4-((1R,5S)-3,8-diazabicyclo[3.2.1]octan-3-yl)-2-((2-(dimethylamino)ethyl)amino)quinaz-olin-7-yl)naphthalen-2-ol], the values for the IC50 in experiment [1] (KRAS G12D) and in experiment [2] were 0.0001 to 10 µM and 10 to 100 µM, respectively.
`CN(C)CCOc1nc(N2C[C@H]3CC[C@@H](C2)N3)c2ccc(-c3cc(O)cc4ccccc34)cc2n1` [P-0023, 4-(4-((1R,5S)-3,8-diazabicyclo[3.2.1]octan-3-yl)-2-(2-(dimethylamino)ethoxy)quinazolin-7-yl)naphthalen-2-ol]: the IC50 was 0.0001 to 10 µM in experiment [1] (KRAS G12D); 0.29 µM in experiment [1] (Table 4, comparison with compounds of WO 2017/172979); 10 to 100 µM in experiment [2]. The “Improved KRAS G12D Biochemical Potency of Compounds with Bridged vs Non-Bridged R^1 Groups” value in experiment [1] (Table 4, fold more potent than the compared compound of WO 2017/172979) is listed as “P-0023 is about 57 times more potent than Compound 149 in WO 2017/172979”.
`C=Cc1cc2c(N3C[C@H]4CC[C@@H](C3)N4)nc(OC[C@@H]3CCCN3C)nc2c(F)c1-c1cc(O)cc2ccccc12` [P-0036, 4-[4-(3,8-Diazabicyclo[3.2.1]octan-3-yl)-8-fluoro-2-[[(2S)-1-methylpyrrolidin-2-yl]methoxy]-6-vinyl-quinazolin-7-yl]naphthalen-2-ol]: the IC50 in experiment [1] (KRAS G12D) and in experiment [2] was 0.0001 to 10 µM each time.
Take `CN1CCC[C@H]1COc1nc(N2CC3CCCC(C2)N3)c2cc(Cl)c(-c3cc(O)cc4ccccc34)c(F)c2n1` [P-0039, 4-(4-(3,9-diazabicyclo[3.3.1]nonan-3-yl)-6-chloro-8-fluoro-2-(((S)-1-methylpyrrolidin-2-yl)methoxy)quinazolin-7-yl)naphthalen-2-ol]: the IC50 in experiment [1] (KRAS G12D) and in experiment [2] was 0.0001 to 10 µM in each case.
Take `CN(C)C(=O)CCNc1nc(N2C[C@H]3CC[C@@H](C2)N3)c2ccc(-c3cc(O)cc4ccccc34)cc2n1` [P-0058, 3-((4-((1R,5S)-3,8-diazabicyclo[3.2.1]octan-3-yl)-7-(3-hydroxynaphthalen-1-yl)quinazolin-2-yl)amino)-N,N-dimethylpropanamide]: the half-inhibitory concentration (IC50) in experiment [1] (KRAS G12D) and in experiment [2] was 10 to 100 µM throughout.
Consider `CN(C)C(=O)CNc1nc(N2C[C@H]3CC[C@@H](C2)N3)c2ccc(-c3cc(O)cc4ccccc34)cc2n1` [P-0059, 2-((4-((1R,5S)-3,8-diazabicyclo[3.2.1]octan-3-yl)-7-(3-hydroxynaphthalen-1-yl)quinazolin-2-yl)amino)-N,N-dimethylacetamide], for which the IC50 in experiment [1] (KRAS G12D) and in experiment [2] was 10 to 100 µM throughout.
In the case of `CNCCNc1nc(N2C[C@H]3CC[C@@H](C2)N3)c2ccc(-c3cc(O)cc4ccccc34)cc2n1` [P-0061, 4-(4-((1R,5S)-3,8-diazabicyclo[3.2.1]octan-3-yl)-2-((2-(methylamino)ethyl)amino)quinazo-lin-7-yl)naphthalen-2-ol], the figures for the IC50 in experiment [1] (KRAS G12D) and in experiment [2] were 0.0001 to 10 µM and 100 to 1000 µM, respectively.
Regarding `CC(CN)Oc1nc(N2C[C@H]3CC[C@@H](C2)N3)c2ccc(-c3cc(O)cc4ccccc34)cc2n1` (stereo partly drawn) [P-0062, 4-(2-((1-aminopropan-2-yl)oxy)-4-((1R,5S)-3,8-diazabicyclo[3.2.1]octan-3-yl)quinazolin-7-yl)naphthalen-2-ol], the IC50 fell in the range of 0.0001 to 10 µM in experiment [1] (KRAS G12D) and 10 to 100 µM in experiment [2].
Turning to `CN1CCC[C@H]1COc1nc(N2C[C@H]3CC[C@@H](C2)O3)c2ccc(-c3cc(O)cc4ccccc34)c(F)c2n1` [P-0114, 4-(4-((1R,5S)-8-oxa-3-azabicyclo[3.2.1]octan-3-yl)-8-fluoro-2-(((S)-1-methylpyrrolidin-2-yl)methoxy)quinazolin-7-yl)naphthalen-2-ol], the IC50 in experiment [1] (KRAS G12D) and in experiment [2] was 0.0001 to 10 µM in each case.
On to `CCc1cccc2[nH]cc(-c3ncc4c(N5C[C@H]6CC[C@@H](C5)N6)nc(OC[C@@]56CCCN5C[C@H](F)C6)nc4c3F)c12` [P-0505, 4-((1R,5S)-3,8-diazabicyclo[3.2.1]octan-3-yl)-7-(4-ethyl-1H-indol-3-yl)-8-fluoro-2-(((2R,7aS)-2-fluorotetrahydro-1H-pyrrolizin-7a(5H)-yl)methoxy)pyrido[4,3-d]pyrimidine], for which the IC50 in experiment [1] (KRAS G12D) and in experiment [2] was 0.0001 to 10 µM throughout.
On to `Oc1cc(-c2ccc3c(N4C[C@H]5CC[C@@H](C4)N5)nc(N4CC(O)(C5CC5)C4)nc3c2F)c2ccccc2c1` [P-0636, 1-(4-((1R,5S)-3,8-diazabicyclo[3.2.1]octan-3-yl)-8-fluoro-7-(3-hydroxynaphthalen-1-yl)quinazolin-2-yl)-3-cyclopropylazetidin-3-ol], for which the IC50 in experiment [1] (KRAS G12D) and in experiment [2] was 0.0001 to 10 µM throughout.
With `CCN(CC)C1CN(c2nc(N3C[C@H]4CC[C@@H](C3)N4)c3ccc(-c4cc(O)cc5ccccc45)c(F)c3n2)C1` [P-0637, 4-(4-((1R,5S)-3,8-diazabicyclo[3.2.1]octan-3-yl)-2-(3-(diethylamino)azetidin-1-yl)-8-fluoroquinazolin-7-yl)naphthalen-2-ol], the IC50 lay within 0.0001 to 10 µM in experiment [1] (KRAS G12D) and 10 to 100 µM in experiment [2].
Taken in the same sequence, the figures for `Oc1cc(-c2ccc3c(N4C[C@H]5CC[C@@H](C4)N5)nc(N4CC(N5CC(F)C5)C4)nc3c2F)c2ccccc2c1` [P-0638, 4-(4-((1R,5S)-3,8-diazabicyclo[3.2.1]octan-3-yl)-8-fluoro-2-(3-fluoro-[1,3′-biazetidin]-1′-yl)quinazolin-7-yl)naphthalen-2-ol] were 0.0001 to 10 µM and 10 to 100 µM.
The corresponding values for `CN(C)C1(CNc2nc(N3C[C@H]4CC[C@@H](C3)N4)c3ccc(-c4cc(O)cc5ccccc45)c(F)c3n2)CCOCC1` [P-0639, 4-(4-((1R,5S)-3,8-diazabicyclo[3.2.1]octan-3-yl)-2-(((4-(dimethylamino)tetrahydro-2H-pyran-4-yl)methyl)amino)-8-fluoroquinazolin-7-yl)naphthalen-2-ol] are 0.0001 to 10 µM and 10 to 100 µM.
For `CN(C)C1(C(N)=O)CN(c2nc(N3C[C@H]4CC[C@@H](C3)N4)c3ccc(-c4cc(O)cc5ccccc45)c(F)c3n2)C1` [P-0640, 1-(4-((1R,5S)-3,8-diazabicyclo[3.2.1]octan-3-yl)-8-fluoro-7-(3-hydroxynaphthalen-1-yl)quinazolin-2-yl)-3-(dimethylamino)azetidine-3-carboxamide], the IC50 in experiment [1] (KRAS G12D) was 0.0001 to 10 µM; in experiment [2] it was 10 to 100 µM.
The corresponding values for `CN1CCCC12CN(c1nc(N3C[C@H]4CC[C@@H](C3)N4)c3ccc(-c4cc(O)cc5ccccc45)c(F)c3n1)C2` [P-0641, 4-(4-((1R,5S)-3,8-diazabicyclo[3.2.1]octan-3-yl)-8-fluoro-2-(5-methyl-2,5-diazaspiro[3.4]octan-2-yl)quinazolin-7-yl)naphthalen-2-ol] are 0.0001 to 10 µM and 10 to 100 µM.
For `Cc1cccc2cccc(-c3ccc4c(N5C[C@H]6CC[C@@H](C5)N6C(=O)CC#N)nc(OCC56CCCN5CCC6)nc4c3F)c12` [P-0813, 3-((1R,5S)-3-(8-fluoro-7-(8-methylnaphthalen-1-yl)-2-((tetrahydro-1H-pyrrolizin-7a(5H)-yl)methoxy)quinazolin-4-yl)-3,8-diazabicyclo[3.2.1]octan-8-yl)-3-oxopropanenitrile], the IC50 in experiment [2] lay in the range of 0.0001 to 10 µM.
